Measurements from ChEMBL document CHEMBL3885861, “Open TG-GATES”.

Organism: Rattus norvegicus
Assay: Open TG-GATES - Regimen: Single
Assay type: toxicity, organism-based, Sprague-Dawley
Set-up: regimen Single, gender Male, age 6 weeks
Conditions: in vivo, po, route gavage; for APTT / Bas / Eos / Fbg / Hb / Ht / Lym / MCH / MCHC / MCV / Mono / Neu / PT / Plat / RBC / Ret / WBC: tissue Blood; for KIDNEY_L / KIDNEY_R / KIDNEY_TOTAL: tissue Kidney; for ALP / AST / CRE / Cl / DBIL / GLC / IP / K / LDH / Na / PL / RALB / TBIL / TC / TG / TP / gamma-GTP / ALT: tissue Plasma
[1] = 0 mg/kg, 3 h, dose level Control
[2] = 0 mg/kg, 6 h, dose level Control
[3] = 0 mg/kg, 9 h, dose level Control
[4] = 0 mg/kg, 24 h, dose level Control

## COc1cc2c(c(OC)c1OC)-c1ccc(OC)c(=O)cc1[C@@H](NC(C)=O)CC2 [COLCHICINE]
[1]
  TERMINAL_BW: 221.7 g
  APTT: 16.2 s
  Bas: 0%
  Eos: 0.8%
  Fbg: 209.4 mg/dL
  Hb: 13.1 g/dL
  Ht: 39.6%
  Lym: 81.8%
  MCH: 21.6 pg
  MCHC: 33.1%
  MCV: 65.2 fL
  Mono: 7%
  Neu: 10.4%
  PT: 11.8 s
  Plat: 118.4 x10_4/uL
  RBC: 608.4 x10_4/ul
  Ret: 10.3%
  WBC: 89.6 x10_2/uL
  KIDNEY_L: 1 g
  KIDNEY_R: 1.1 g
  KIDNEY_TOTAL: 2 g
  ALP: 835.6 IU/L
  AST: 65.6 IU/L
  CRE: 0.4 mg/dL
  Cl: 103.4 meq/L
  DBIL: 0.038 mg/dL
  GLC: 208.6 mg/dL
  IP: 9.3 mg/dL
  K: 4.5 meq/L
  LDH: 88.4 IU/L
  Na: 140.2 meq/L
  PL: 139.2 mg/dL
  RALB: 3.6 g/dL
  TBIL: 0.3 mg/dL
  TC: 78.4 mg/dL
  TG: 61 mg/dL
  TP: 5.4 g/dL
  gamma-GTP: 1.4 IU/L
[2]
  TERMINAL_BW: 218.4 g
  APTT: 16.3 s
  Bas: 0%
  Eos: 0.8%
  Fbg: 222.4 mg/dL
  Hb: 13.1 g/dL
  Ht: 39.9%
  Lym: 82.2%
  MCH: 21.6 pg
  MCHC: 33%
  MCV: 65.4 fL
  Mono: 6.6%
  Neu: 10.4%
  PT: 12 s
  Plat: 110.7 x10_4/uL
  RBC: 609.8 x10_4/ul
  Ret: 9.6%
  WBC: 104.3 x10_2/uL
  KIDNEY_L: 1 g
  KIDNEY_R: 1 g
  KIDNEY_TOTAL: 2 g
  ALP: 745.2 IU/L
  ALT: 27.6 IU/L
  AST: 59 IU/L
  CRE: 0.5 mg/dL
  Cl: 104 meq/L
  DBIL: 0.036 mg/dL
  GLC: 188.2 mg/dL
  IP: 10.1 mg/dL
  K: 4.6 meq/L
  LDH: 77.2 IU/L
  Na: 139 meq/L
  PL: 135.2 mg/dL
  RALB: 3.7 g/dL
  TBIL: 0.4 mg/dL
  TC: 73.2 mg/dL
  TG: 48.4 mg/dL
  TP: 5.5 g/dL
  gamma-GTP: 1.6 IU/L
[3]
  TERMINAL_BW: 218.9 g
  APTT: 16.3 s
  Bas: 0%
  Eos: 0.8%
  Fbg: 216.2 mg/dL
  Hb: 12.8 g/dL
  Ht: 38.9%
  Lym: 85.4%
  MCH: 21.6 pg
  MCHC: 33%
  MCV: 65.8 fL
  Mono: 5.4%
  Neu: 8.4%
  PT: 12.1 s
  Plat: 111 x10_4/uL
  RBC: 591.6 x10_4/ul
  Ret: 9.4%
  WBC: 88.7 x10_2/uL
  KIDNEY_L: 1 g
  KIDNEY_R: 1.1 g
  KIDNEY_TOTAL: 2.1 g
  ALP: 948.4 IU/L
  ALT: 28.8 IU/L
  AST: 64.4 IU/L
  CRE: 0.5 mg/dL
  Cl: 105.2 meq/L
  DBIL: 0.044 mg/dL
  GLC: 199.8 mg/dL
  IP: 9.9 mg/dL
  K: 4.9 meq/L
  LDH: 71.2 IU/L
  Na: 137.6 meq/L
  PL: 134.4 mg/dL
  RALB: 3.8 g/dL
  TBIL: 0.4 mg/dL
  TC: 77.6 mg/dL
  TG: 40 mg/dL
  TP: 5.4 g/dL
  gamma-GTP: 1.6 IU/L
[4]
  TERMINAL_BW: 232.9 g
  APTT: 16.4 s
  Bas: 0%
  Eos: 1.2%
  Fbg: 215.8 mg/dL
  Hb: 12.8 g/dL
  Ht: 38.6%
  Lym: 77.2%
  MCH: 21.7 pg
  MCHC: 33.1%
  MCV: 65.5 fL
  Mono: 7.2%
  Neu: 14.6%
  PT: 11.2 s
  Plat: 118.5 x10_4/uL
  RBC: 588.4 x10_4/ul
  Ret: 10.2%
  WBC: 102.4 x10_2/uL
  KIDNEY_L: 1.1 g
  KIDNEY_R: 1.1 g
  KIDNEY_TOTAL: 2.2 g
  ALP: 858 IU/L
  AST: 61.2 IU/L
  CRE: 0.5 mg/dL
  Cl: 102.8 meq/L
  DBIL: 0.022 mg/dL
  GLC: 203 mg/dL
  IP: 7.7 mg/dL
  K: 4.9 meq/L
  LDH: 86.2 IU/L
  Na: 137.6 meq/L
  PL: 156.8 mg/dL
  RALB: 3.8 g/dL
  TBIL: 0.4 mg/dL
  TC: 84.8 mg/dL
  TG: 122.8 mg/dL
  TP: 5.7 g/dL
  gamma-GTP: 1 IU/L
2 mg/kg, 3 h, dose level Low
  TERMINAL_BW: 218.7 g
